US20260337208A1, “HETEROCYCLIC DERIVATIVES AS JANUS KINASE INHIBITORS” (CHIESI FARMACEUTICI S.P.A., priority 2022, published 2026)

Assays:
JAK3 = molecular target: T1, JAK3 (Homo sapiens, UniProt P52333); assay: Biochemical potency on JAK3, TR-FRET (LANCE Ultra kinase assay); settings: ATP corresponding to Km; cell-free; read-out: JAK3 inhibitory activity (pIC50) (converted)
T1 sequence (P52333 1-1124): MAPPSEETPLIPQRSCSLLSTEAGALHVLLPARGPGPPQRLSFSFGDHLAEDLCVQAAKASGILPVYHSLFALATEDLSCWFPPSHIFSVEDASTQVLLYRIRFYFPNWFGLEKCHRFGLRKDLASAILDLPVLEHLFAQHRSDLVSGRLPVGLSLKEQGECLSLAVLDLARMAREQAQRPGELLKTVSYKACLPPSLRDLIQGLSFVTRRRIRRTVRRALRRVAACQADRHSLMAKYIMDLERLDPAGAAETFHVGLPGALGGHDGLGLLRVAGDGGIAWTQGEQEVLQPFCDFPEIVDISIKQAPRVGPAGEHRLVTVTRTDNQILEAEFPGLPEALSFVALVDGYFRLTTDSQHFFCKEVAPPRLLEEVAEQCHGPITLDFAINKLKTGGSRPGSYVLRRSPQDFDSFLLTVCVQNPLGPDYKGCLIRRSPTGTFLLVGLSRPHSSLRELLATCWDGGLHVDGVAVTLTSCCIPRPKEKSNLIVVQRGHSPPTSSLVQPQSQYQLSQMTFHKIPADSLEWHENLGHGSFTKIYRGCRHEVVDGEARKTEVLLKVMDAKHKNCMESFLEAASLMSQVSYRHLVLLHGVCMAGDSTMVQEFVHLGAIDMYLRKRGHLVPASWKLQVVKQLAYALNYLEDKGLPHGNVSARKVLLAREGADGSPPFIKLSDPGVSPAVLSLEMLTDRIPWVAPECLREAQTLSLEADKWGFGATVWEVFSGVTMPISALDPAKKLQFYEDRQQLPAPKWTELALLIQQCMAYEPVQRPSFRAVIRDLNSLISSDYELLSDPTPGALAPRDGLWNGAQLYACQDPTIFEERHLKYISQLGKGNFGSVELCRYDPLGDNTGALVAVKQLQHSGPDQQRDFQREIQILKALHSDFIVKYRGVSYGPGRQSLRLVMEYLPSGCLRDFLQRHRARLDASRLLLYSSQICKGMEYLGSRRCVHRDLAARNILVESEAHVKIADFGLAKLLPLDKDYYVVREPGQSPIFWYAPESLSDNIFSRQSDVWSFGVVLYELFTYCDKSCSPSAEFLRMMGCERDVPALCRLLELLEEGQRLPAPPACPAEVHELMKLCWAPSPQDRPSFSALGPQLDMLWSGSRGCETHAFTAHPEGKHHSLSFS
Procedure: (§1) The objective of this study was to assess the capability of compounds to inhibit all 4 JAK isoforms activity in a cell-free environment. Assay for JAK 1, JAK 2, JAK 3 and TYK2 were performed by Time-resolved fluorescence resonance energy transfer (TR-FRET) technology. It consists in the interaction of two labelled binding partners detected by the energy transfer from an excited donor to an acceptor dye and measurement of light emission by the acceptor dye. LANCE Ultra kinase assay was used. In presence of JAK 1, JAK 2, JAK 3 and TYK2 kinases and ATP (corresponding to Km), the ULight peptide substrate (LANCE Ulight-JAK-1 (Tyr1023) Peptide, Perkin Elmer, TRF0121) is phosphorylated. It is then captured by Eu-anti-phospho-substrate antibody (LANCE Eu-W1024 Anti-phosphotyrosine (PT66), Perkin Elmer, AD0069), which bring the Eu-chelate donor and ULight acceptor dyes into close proximity. Upon excitation at 320 nm, the Eu-chelate transfers its energy to the ULight dye, resulting in a fluorescent light emission at 665 nm.
(§2) Serial dilutions of compounds in pure DMSO are prepared from 10 mM DMSO stock solutions. Compounds were tested in 384-well plate for 11 consecutive 5-fold dilutions starting from 20 μM highest concentration (20 μM-[…]). 200 nL of compound were transferred from mother plate to test plate by using Mosquito (TTP labtech). Assay was performed in 384-well Perkin Elmer test plate in 20 μL assay volume (kinase reaction) and 40 μL total volume (stopping reagent and antibody detection reagents). In 10 μL of substrate solution (peptide+ATP) 30/50/20/10 nM of peptide and 20/0.7/0.2/12 μM of ATP were added for JAK 1, JAK 2, JAK 3 and TYK2 respectively. 10 μL of enzyme solution was added to kinase reaction at these concentrations: 0.15/0.083/0.025/0.144 ng/μL of JAK 1, JAK 2, JAK 3 and TYK2 respectively. After shaking and 1.5 h of incubation at r.t., 20 μL of Stop (10 μL EDTA) and Detection mixture (10 μL Europium-anti-phospho antibody, final: 0.5 nM) were added. Reading was performed after 1 h of incubation on a En Vision 2104 reader (Perkin Elmer).
(§3) Calculation of IC50 data, curves and QC analysis was performed by using Excel tool and GraphPadPrism software, v9. Briefly, individual concentration-effect curves are generated by plotting the logarithm of the tested concentration of tested compounds (X) vs. corresponding percent inhibition values (Y) using least squares (ordinary) fit. Best fit IC50 values are calculated using Log (inhibitor) vs. normalized response—Variable slope equation, where Y=100/(1+10^((LogIC50−X)*HillSlope)). QC criteria parameters (Z′, S:B, R2, HillSlope) were checked for every IC50 curve. Calculation of IC50 data, curves and QC analysis were made using Excel tools and GraphPadPrism software. QC criteria parameters: Z′≥0.5, Hill Slope range 0.5 to 5, S:B>2.

JAK1 = JAK1 (Homo sapiens, UniProt P23458); assay: Biochemical potency on JAK1, TR-FRET (LANCE Ultra kinase assay); settings: ATP corresponding to Km; cell-free; read-out: JAK1 inhibitory activity (pIC50) (converted)
Procedure: as §1, §2, §3

JAK2 = JAK2 (Homo sapiens, UniProt O60674); assay: Biochemical potency on JAK2, TR-FRET (LANCE Ultra kinase assay); settings: ATP corresponding to Km; cell-free; read-out: JAK2 inhibitory activity (pIC50) (converted)
Procedure: as §1, §2, §3

[1] = system: pSTAT6 in BEAS-2B human cell line; assay: Inhibition of IL-13 induced pSTAT6 in BEAS; assay type: cell-based; settings: for IC50: Homo sapiens, BEAS-2B, 0.5 h, parent compound; for IC50 / pIC50 (BEAS) predicted acid metabolite: IL-13 trigger, 30 min
Procedure: BEAS-2B human cell line was seeded (100.000 cells/well) and incubated for 48 h at 37° C., 5% CO2, 95% humidity. Compounds were added and incubated 30 min followed by IL-13 as trigger. After 30 min incubation, cells were lysed and pSTAT6 determined by Fastscan phospho-stat6 (Tyr641) sandwich ELISA kit (cell signaling). Inhibitors were tested at 11 consecutive 5-fold dilutions starting from 10 μM (10 μM-[…]) in duplicate. Calculation of IC50 data, curves and QC analysis were made using Excel tools and GraphPadPrism software. QC criteria parameters: Z′≥0.35, Hill Slope range 0.5 to 5, S:B>2.

TYK2 = TYK2 (Homo sapiens, UniProt P29597); assay: Biochemical potency on Tyk2, TR-FRET (LANCE Ultra kinase assay); settings: ATP corresponding to Km; cell-free; read-out: TYK2 inhibitory activity (pIC50) (converted)
Procedure: as §1, §2, §3

Sequence of JAK2 (O60674 whole entry): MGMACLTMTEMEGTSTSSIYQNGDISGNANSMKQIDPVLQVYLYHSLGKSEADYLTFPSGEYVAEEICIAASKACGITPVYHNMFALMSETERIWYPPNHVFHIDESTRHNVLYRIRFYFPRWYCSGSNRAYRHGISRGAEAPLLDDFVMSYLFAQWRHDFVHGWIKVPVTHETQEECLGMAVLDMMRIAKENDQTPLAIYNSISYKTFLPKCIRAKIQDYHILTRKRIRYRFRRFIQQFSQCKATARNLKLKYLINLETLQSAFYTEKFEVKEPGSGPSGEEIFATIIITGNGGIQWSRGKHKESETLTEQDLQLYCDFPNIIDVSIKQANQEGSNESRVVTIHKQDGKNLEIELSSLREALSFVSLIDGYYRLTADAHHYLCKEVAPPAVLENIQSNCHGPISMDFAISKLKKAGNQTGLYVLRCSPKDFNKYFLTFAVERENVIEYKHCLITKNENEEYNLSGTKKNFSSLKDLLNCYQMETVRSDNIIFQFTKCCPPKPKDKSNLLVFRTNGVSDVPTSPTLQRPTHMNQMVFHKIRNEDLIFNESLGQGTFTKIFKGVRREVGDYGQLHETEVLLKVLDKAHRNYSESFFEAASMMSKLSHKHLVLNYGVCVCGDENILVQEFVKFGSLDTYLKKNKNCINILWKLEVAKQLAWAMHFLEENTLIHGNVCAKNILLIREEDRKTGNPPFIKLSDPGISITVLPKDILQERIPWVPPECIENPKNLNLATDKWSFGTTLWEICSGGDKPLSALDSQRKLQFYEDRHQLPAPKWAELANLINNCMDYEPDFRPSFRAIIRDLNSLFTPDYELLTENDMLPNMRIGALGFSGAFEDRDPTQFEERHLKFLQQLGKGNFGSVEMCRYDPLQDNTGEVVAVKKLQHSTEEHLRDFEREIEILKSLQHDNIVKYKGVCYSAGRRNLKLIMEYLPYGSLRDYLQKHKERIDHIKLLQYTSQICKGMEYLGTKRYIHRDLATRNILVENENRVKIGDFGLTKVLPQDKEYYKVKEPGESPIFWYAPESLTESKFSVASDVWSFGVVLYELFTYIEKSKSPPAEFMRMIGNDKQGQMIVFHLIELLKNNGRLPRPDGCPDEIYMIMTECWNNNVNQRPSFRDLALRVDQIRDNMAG
Sequence of JAK1 (P23458 whole entry): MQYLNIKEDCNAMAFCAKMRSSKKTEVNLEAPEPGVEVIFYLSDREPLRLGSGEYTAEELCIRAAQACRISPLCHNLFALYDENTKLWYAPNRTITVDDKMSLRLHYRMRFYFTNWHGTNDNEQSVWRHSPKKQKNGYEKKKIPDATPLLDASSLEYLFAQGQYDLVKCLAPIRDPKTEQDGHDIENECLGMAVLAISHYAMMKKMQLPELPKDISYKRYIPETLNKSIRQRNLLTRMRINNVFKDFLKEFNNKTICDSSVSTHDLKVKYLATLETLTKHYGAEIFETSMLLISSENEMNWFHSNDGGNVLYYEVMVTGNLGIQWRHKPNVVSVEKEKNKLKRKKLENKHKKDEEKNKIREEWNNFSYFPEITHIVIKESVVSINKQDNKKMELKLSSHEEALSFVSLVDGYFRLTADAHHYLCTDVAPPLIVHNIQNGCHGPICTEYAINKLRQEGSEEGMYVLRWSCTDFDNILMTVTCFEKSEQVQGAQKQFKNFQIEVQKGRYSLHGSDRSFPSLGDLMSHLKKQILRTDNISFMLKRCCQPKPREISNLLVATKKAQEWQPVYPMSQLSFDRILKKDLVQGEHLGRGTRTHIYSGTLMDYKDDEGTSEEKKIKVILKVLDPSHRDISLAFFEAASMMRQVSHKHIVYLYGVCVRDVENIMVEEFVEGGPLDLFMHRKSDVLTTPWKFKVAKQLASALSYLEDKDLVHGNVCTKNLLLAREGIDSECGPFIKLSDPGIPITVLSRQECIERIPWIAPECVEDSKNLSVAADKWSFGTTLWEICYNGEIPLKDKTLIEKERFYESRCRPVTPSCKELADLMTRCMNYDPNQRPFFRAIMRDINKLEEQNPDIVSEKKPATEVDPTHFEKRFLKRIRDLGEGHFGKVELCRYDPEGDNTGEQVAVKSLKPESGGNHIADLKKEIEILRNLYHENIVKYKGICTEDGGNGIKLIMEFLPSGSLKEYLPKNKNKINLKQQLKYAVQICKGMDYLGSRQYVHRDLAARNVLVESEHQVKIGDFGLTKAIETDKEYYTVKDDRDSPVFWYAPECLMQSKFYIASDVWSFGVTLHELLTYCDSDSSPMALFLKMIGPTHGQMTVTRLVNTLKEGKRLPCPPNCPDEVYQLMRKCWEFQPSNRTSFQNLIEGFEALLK
Sequence of TYK2 (P29597 whole entry): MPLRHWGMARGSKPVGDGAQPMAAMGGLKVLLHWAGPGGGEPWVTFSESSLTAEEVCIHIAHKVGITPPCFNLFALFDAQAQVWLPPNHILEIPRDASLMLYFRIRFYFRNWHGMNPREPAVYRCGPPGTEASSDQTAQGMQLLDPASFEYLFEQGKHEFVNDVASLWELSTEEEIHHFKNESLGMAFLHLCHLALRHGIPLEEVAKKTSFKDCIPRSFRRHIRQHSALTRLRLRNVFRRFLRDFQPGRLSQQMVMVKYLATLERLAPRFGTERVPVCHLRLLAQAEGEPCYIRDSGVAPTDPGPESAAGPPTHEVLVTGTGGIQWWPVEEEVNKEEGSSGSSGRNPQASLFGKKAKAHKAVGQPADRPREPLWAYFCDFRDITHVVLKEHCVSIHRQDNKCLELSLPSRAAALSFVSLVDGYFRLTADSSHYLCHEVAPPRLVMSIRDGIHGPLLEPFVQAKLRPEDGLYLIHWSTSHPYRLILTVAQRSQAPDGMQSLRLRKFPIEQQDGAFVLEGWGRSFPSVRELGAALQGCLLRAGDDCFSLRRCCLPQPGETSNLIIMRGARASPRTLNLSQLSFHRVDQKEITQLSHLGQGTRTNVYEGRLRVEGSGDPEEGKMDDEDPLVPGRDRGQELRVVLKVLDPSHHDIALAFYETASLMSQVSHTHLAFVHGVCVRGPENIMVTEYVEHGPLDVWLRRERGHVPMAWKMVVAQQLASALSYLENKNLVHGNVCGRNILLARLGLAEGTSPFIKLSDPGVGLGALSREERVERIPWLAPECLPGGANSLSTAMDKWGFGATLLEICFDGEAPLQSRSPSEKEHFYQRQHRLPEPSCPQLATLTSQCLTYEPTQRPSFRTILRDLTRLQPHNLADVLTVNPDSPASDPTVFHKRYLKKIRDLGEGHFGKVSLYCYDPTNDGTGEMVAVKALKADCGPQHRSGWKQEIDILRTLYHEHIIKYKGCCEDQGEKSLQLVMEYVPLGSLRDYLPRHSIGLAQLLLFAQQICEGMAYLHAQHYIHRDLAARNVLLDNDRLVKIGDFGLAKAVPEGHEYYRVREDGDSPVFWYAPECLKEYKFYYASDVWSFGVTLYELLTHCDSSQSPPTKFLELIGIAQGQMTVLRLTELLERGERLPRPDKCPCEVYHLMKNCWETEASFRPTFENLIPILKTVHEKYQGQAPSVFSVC

CCOC(=O)[C@@H]1C[C@@H]2CN(CCNC(=O)c3nn(-c4cc5c(cc4OC)NCCO5)c4cc(-c5cnn6cccnc56)ncc34)C[C@@H]2C1 [Example 32]
IC50 (JAK3): ≤ 5.01 nM
IC50 (JAK1): ≤ 5.01 nM
IC50 (JAK2): ≤ 5.01 nM
IC50 [1]: 5.01 to 50.1 nM
IC50 (TYK2): 5.01 to 50.1 nM

COc1cc2c(cc1-n1nc(C(=O)NCCCN3CCC(C(=O)OC4CCN(C)CC4)CC3)c3cnc(-c4cnn5cccnc45)cc31)OCCN2 [Example 26, 1-methylpiperidin-4-yl 1-(3-(1-(6-methoxy-3,4-dihydro-2H-benzo[b][1,4]oxazin-7-yl)-6-(pyrazolo[1,5-a]pyrimidin-3-yl)-1H-pyrazolo[4,3-c]pyridine-3-carboxamido)propyl)piperidine-4-carboxylate]
IC50 (JAK3): ≤ 5.01 nM
IC50 (JAK1): 5.01 to 50.1 nM
IC50 (JAK2): ≤ 5.01 nM
IC50 [1]: 5.01 to 50.1 nM
IC50 (TYK2): 5.01 to 50.1 nM

COc1cc2c(cc1-n1nc(C(=O)NCCN3CCC(C(=O)O)CC3)c3cnc(-c4cnn5cccnc45)cc31)OCCN2 [Example A1, 1-(2-(1-(6-methoxy-3,4-dihydro-2H-benzo[b][1,4]oxazin-7-yl)-6-(pyrazolo[1,5-a]pyrimidin-3-yl)-1H-pyrazolo[4,3-c]pyridine-3-carboxamido)ethyl)piperidine-4-carboxylic acid, reference compound]
pIC50 (BEAS) predicted acid metabolite [1]: § (pIC50<6.3)

COc1cc2c(cc1-n1nc(C(=O)NCCN3CCC(C(=O)OC(C)C)CC3)c3cnc(-c4cnn5cccnc45)cc31)OCCN2 [Example 45, isopropyl 1-(2-(1-(6-methoxy-3,4-dihydro-2H-benzo[b][1,4]oxazin-7-yl)-6-(pyrazolo[1,5-a]pyrimidin-3-yl)-1H-pyrazolo[4,3-c]pyridine-3-carboxamido)ethyl)piperidine-4-carboxylate]
IC50 (JAK3): ≤ 5.01 nM
IC50 (JAK1): ≤ 5.01 nM
IC50 (JAK2): ≤ 5.01 nM
IC50 [1]: ≤ 5.01 nM
Fold difference parent vs predicted acid metabolite ([1]; ratio=IC50 predicted acid metabolite/IC50 ester): kkkk (ratio≥200)
IC50 (TYK2): 5.01 to 50.1 nM

COc1cc2c(cc1-n1nc(C(=O)NCCN3CC[C@H](C(=O)O)C3)c3cnc(-c4cnn5cccnc45)cc31)OCCN2 [Example A3, reference compound]
pIC50 (BEAS) predicted acid metabolite [1]: § (pIC50<6.3)

COc1cc2c(cc1-n1nc(NC(=O)OCC(=O)O)c3cnc(-c4cnn5cccnc45)cc31)SCCN2 [Example A10, 2-(((1-(6-Methoxy-3,4-dihydro-2H-benzo[b][1,4]thiazin-7-yl)-6-(pyrazolo[1,5-a]pyrimidin-3-yl)-1H-pyrazolo[4,3-c]pyridin-3-yl)carbamoyl)oxy)acetic acid, reference compound]
pIC50 (BEAS) predicted acid metabolite [1]: § (pIC50<6.3)

COc1cc2c(cc1-n1nc(NC(=O)OCCN3CCC(C(=O)O)CC3)c3cnc(-c4cnn5cccnc45)cc31)SCCN2 [Example A5, reference compound]
pIC50 (BEAS) predicted acid metabolite [1]: §§ (7.3>pIC50≥6.3)

COc1cc2c(cc1-n1nc(NC(=O)O[C@H]3C[C@@H](C(=O)O)C3)c3cnc(-c4cnn5cccnc45)cc31)OCCN2 [Example A7, reference compound]
pIC50 (BEAS) predicted acid metabolite [1]: § (pIC50<6.3)

COc1cc2c(cc1-n1nc(C(=O)NCCN3CCC(C(=O)O)CC3)c3cnc(Nc4ncc[nH]c4=O)cc31)OCCN2 [Example A11, reference compound]
pIC50 (BEAS) predicted acid metabolite [1]: § (pIC50<6.3)

COc1cc2c(cc1-n1nc(C(=O)O)c3cnc(-c4cnn5cccnc45)cc31)OCCN2 [Example A9, 1-(6-Methoxy-3,4-dihydro-2H-benzo[b][1,4]oxazin-7-yl)-6-(pyrazolo[1,5-a]pyrimidin-3-yl)-1H-pyrazolo[4,3-c]pyridine-3-carboxylic acid, reference compound]
pIC50 (BEAS) predicted acid metabolite [1]: § (pIC50<6.3)

COc1cc2c(cc1-n1nc(NC(=O)OCCN3CCC(C(=O)O)CC3)c3cnc(-c4cnn5cccnc45)cc31)OCCN2 [Example A8, reference compound]
pIC50 (BEAS) predicted acid metabolite [1]: § (pIC50<6.3)

COc1cc2c(cc1-n1nc(NC(=O)OCC(=O)O)c3cnc(-c4cnn5cccnc45)cc31)OCCN2 [Example A6, reference compound]
pIC50 (BEAS) predicted acid metabolite [1]: § (pIC50<6.3)

COc1cc2c(cc1-n1nc(C(=O)NCCN3CCC(CC(=O)O)CC3)c3cnc(-c4cnn5cccnc45)cc31)OCCN2 [Example A12, 2-(1-(2-(1-(6-methoxy-3,4-dihydro-2H-benzo[b][1,4]oxazin-7-yl)-6-(pyrazolo[1,5-a]pyrimidin-3-yl)-1H-pyrazolo[4,3-c]pyridine-3-carboxamido)ethyl)piperidin-4-yl)acetic acid, reference compound]
pIC50 (BEAS) predicted acid metabolite [1]: § (pIC50<6.3)

COc1cc2c(cc1-n1nc(C(=O)NCCN3CC[C@@H](C(=O)O)C3)c3cnc(-c4cnn5cccnc45)cc31)OCCN2 [Example A4, reference compound]
pIC50 (BEAS) predicted acid metabolite [1]: § (pIC50<6.3)

COc1cc2c(cc1-n1nc(C(=O)NCCN3CCC(C(=O)O)CC3)c3cnc(-c4cnn5cccnc45)cc31)SCCN2 [Example A2, reference compound]
pIC50 (BEAS) predicted acid metabolite [1]: §§ (7.3>pIC50≥6.3)
